US20250262188A1, “Methods of Increasing the Plasma Drug Exposure of Anticancer Agents” (Scandion Oncology A/S, priority 2021, published 2025)

Target: T1, BCRP (Homo sapiens, UniProt Q9UNQ0)
T1 construct: endogenous in cells; host or cells: HT29 parental and HT29 SN38-resistant colorectal cancer cells
T1 sequence (Q9UNQ0 1-655): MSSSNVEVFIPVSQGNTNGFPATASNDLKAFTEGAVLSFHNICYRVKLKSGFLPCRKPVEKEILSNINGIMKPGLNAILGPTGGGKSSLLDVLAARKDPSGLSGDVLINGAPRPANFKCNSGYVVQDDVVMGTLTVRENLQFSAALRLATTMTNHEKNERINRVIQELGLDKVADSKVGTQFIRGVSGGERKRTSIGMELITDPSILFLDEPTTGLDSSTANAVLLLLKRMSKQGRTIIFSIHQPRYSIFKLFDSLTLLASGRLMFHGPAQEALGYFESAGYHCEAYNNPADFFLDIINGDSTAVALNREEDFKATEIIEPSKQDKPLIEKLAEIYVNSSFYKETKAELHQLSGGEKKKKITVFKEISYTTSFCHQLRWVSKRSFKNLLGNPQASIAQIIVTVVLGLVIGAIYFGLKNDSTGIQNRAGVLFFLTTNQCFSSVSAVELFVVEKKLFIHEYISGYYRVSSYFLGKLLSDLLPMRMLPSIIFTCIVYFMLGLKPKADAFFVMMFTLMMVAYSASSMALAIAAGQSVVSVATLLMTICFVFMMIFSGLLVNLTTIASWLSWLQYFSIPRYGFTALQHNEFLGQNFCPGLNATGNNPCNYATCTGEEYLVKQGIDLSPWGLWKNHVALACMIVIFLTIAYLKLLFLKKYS
Assay: 3H-SN-38 uptake in HT29 parental cell monolayers (Example 6)
Type: cell-based
Method: All treatments were investigated in three technical replicates (N=3). On the day of experimentation, the culture media was exchanged with 100 μL transport buffer (HBSS, 0.05% BSA, 10 mM HEPES, pH 7.4) and cells were incubated for 15 minutes at 37° C.
Subsequently, the blank transport buffer was exchanged with 50 μL transport buffer containing the different compounds (in 2x of the final concentration) to be tested and incubated for 15 minutes at 37° C. The uptake experiment was started by adding 50 μL of ^3H-SN38 at a concentration of 2 μCi/mL to all wells (the resulting concentration of ^3H-SN38 during the experiment was 1 μCi/mL). The uptake experiment was stopped after 15 minutes of incubation at 37° C. by removing the transport buffer from all wells.
The cell monolayers were subsequently washed twice by adding/removing ice-cold transport buffer twice and finally the cell monolayers were lysed by incubation in 100 μl of 0.1% TritonX-100 for 15 minutes at ambient temperature. Cell lysates were transferred to scintillation vials containing 2 mL of scintillation fluid (Ultima Gold, PerkinElmer). Each well was washed with 2×100 μL purified water (milliQ), which was also transferred to respective scintillation vials.

With `O=C(Nc1cc(C(F)(F)F)cc(C(F)(F)F)c1)Nc1ccc(Br)cc1-c1nnn[nH]1` [SCO-101] the “Uptake of SN-38 in the presence vs absence of SCO-101, all seeded cell densities” value (25 μM SCO-101, HT29 parental) was “increased uptake”, the “Uptake of SN-38 relative to blank HBSS transport buffer control” value (25 μM test compound, HT29 parental, ANOVA α=0.05) was “significantly increased” and the EC50 (HT29 parental cell monolayers, read-out: Estimated EC50-value for increase in uptake of SN-38) was 9.1 µM. For the same compound, the “Uptake of SN-38 with increasing concentrations of SCO-101” value (SCO-101 100 to 0.5 μM, HT29 parental) was “concentration-dependent increase”.
